Here are results for 18 compounds from patent US20250241926A1, “HETEROCYCLIC COMPOUNDS FOR USE IN THE TREATMENT OF CANCER” (ARTIOS PHARMA LIMITED, priority 2021, published 2025).

The target of one assay is T1, Human Polθ polymerase domain (aa1820-2590) (Homo sapiens, UniProt O75417).
T1 construct: Human Polθ polymerase domain (aa1820-2590) was expressed in E. Coli; made in house; host or cells: E. coli
T1 sequence (O75417 1820-2590): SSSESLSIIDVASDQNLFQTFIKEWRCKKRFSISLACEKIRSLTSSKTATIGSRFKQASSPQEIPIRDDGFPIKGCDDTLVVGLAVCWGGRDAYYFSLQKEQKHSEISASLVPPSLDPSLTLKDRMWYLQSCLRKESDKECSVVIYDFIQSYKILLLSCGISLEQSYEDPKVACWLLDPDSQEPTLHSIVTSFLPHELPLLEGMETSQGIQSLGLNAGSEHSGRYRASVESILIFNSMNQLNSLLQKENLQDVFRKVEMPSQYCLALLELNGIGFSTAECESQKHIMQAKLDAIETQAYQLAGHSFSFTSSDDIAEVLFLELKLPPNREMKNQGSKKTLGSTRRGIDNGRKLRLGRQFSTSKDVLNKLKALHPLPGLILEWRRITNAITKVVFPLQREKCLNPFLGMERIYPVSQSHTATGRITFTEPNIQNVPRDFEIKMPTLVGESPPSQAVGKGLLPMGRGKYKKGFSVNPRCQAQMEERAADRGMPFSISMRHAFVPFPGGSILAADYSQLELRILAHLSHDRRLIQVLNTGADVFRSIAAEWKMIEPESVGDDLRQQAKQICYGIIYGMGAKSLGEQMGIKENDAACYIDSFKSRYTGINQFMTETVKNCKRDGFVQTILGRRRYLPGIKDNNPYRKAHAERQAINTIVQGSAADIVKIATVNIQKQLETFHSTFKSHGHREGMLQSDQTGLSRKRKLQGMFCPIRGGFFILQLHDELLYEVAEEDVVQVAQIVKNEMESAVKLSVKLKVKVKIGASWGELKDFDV
Briefly: Polθ Polymerase Domain Kinact/Kl Assay (PicoGreen). The note with it: covalent inhibitors, kobs vs [I] fit, 0.8 nM Polθ, 100 nM DNA substrate. It counts as biochemical. In a few lines:
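E. coli-expressed enzyme (0.8 nM final) was run with 100 nM annealed DNA substrate and dNTPs in Tris pH 7.5 buffer (1% DMSO), with EDTA stops across a time course up to 60 min. Synthesised DNA was read by PicoGreen fluorescence. kobs per inhibitor concentration was fitted from the time courses, and Kinact and KI came from the kobs-vs-[I] plot.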
Take `C=CC(=O)N1CC(O[C@@H]2CN(CCN3CC[C@H](Nc4nc(C)cc(C(F)(F)F)c4C#N)C(=O)N(C)c4cccc(F)c43)C[C@H]2O)C1` [Example 65A, 2-(((S)-6-(2-((3S/R,4S/R)-3-((1-Acryloylazetidin-3-yl)oxy)-4-hydroxypyrrolidin-1-yl)ethyl)-7-fluoro-1-methyl-2-oxo-1,2,3,4,5,6-hexahydrobenzo[b][1,4]diazocin-3-yl)amino)-6-methyl-4-(trifluoromethyl)nicotinonitrile]: the kinact/KI turned out to be 460000 M⁻¹ s⁻¹.
Still for that read-out and setting: the result for “(S)-2-((6-(2-(3-(4-Acrylo- ylpiperazin-1-yl)azetidin- 1-yl)ethyl)-7-fluoro-1- methyl-2-oxo-1,2,3,4,5,6- hexahydrobenzo[b][1,4] diazocin-3-yl)amino)-6- methyl-4-(trifluorometh- yl)nicotinonitrile [Example 10]” reads 190000 M⁻¹ s⁻¹.
Same read-out and setting: the result for “(S)-2-((6-(2-(4-(1-Acrylo- yl-3-hydroxyazetidin-3- yl)piperidin-1-yl)ethyl)-7- fluoro-1-methyl-2-oxo- 1,2,3,4,5,6-hexahydro- benzo[b][1,4]diazocin-3- yl)amino)-6-methyl-4- (trifluoromethyl)nicotino- nitrile [Example 12]” reads 440000 M⁻¹ s⁻¹.
For the compound “(S)-2-((6-(2-(4-(1-Acrylo- ylazetidin-3-yl)piperazin- 1-yl)ethyl)-7-fluoro-1- methyl-2-oxo-1,2,3,4,5,6- hexahydrobenzo[b][1,4] diazocin-3-yl)amino)-6- methyl-4-(trifluorometh- yl)nicotinonitrile [Example 11]”, the kinact/KI came to 500000 M⁻¹ s⁻¹.
As for “(S,E)-2-((6-(2-(2- (4-(Dimethyl- amino)but-2-eno- yl)-5-methyl-7- oxo-2,5,8-triaza- spiro[3.5]nonan-8- yl)ethyl)-7-fluoro- 1-methyl-2-oxo- 1,2,3,4,5,6-hexa- hydrobenzo[b] [1,4]diazocin-3- yl)amino)-6-meth- yl-4-(trifluoro- methyl)nicotino- nitrile [Example 46]”, the kinact/KI came out at 560000 M⁻¹ s⁻¹.

Staying with this assay, now noted: covalent inhibitors, kobs vs [I] fit, 0.8 nM Polθ, 100 nM DNA substrate, read-out: Kinact/KI.
With `C#CCN(C)C/C=C/C(=O)N1CC(OCCCN2CC[C@H](Nc3nc(C)cc(C(F)(F)F)c3C#N)C(=O)N(C)c3cccc(F)c32)C1` [Example 57, (S,E)-2-((7-Fluoro-1-methyl-6-(3-((1-(4-(methyl(prop-2-yn-1-yl)amino)but-2-enoyl)azetidin-3-yl)oxy)propyl)-2-oxo-1,2,3,4,5,6-hexahydrobenzo[b][1,4]diazocin-3-yl)amino)-6-methyl-4-(trifluoromethyl)nicotinonitrile], the kinact/KI was 300000 M⁻¹ s⁻¹.
Regarding `Cc1cc(C(F)(F)F)c(C#N)c(N[C@H]2CCN(C[C@@H]3CN(C4CN(C(=O)/C=C/CN(C)C)C4)CCO3)c3c(F)cccc3N(C)C2=O)n1` [Example 59, 2-(((S)-6-(((S)-4-(1-((E)-4-(Dimethylamino)but-2-enoyl)azetidin-3-yl)morpholin-2-yl)methyl)-7-fluoro-1-methyl-2-oxo-1,2,3,4,5,6-hexahydrobenzo[b][1,4]diazocin-3-yl)amino)-6-methyl-4-(trifluoromethyl)nicotinonitrile], the kinact/KI amounted to 120000 M⁻¹ s⁻¹.
`Cc1cc(C(F)(F)F)c(C#N)c(N[C@H]2CCN(C[C@H]3CN(C4CN(C(=O)/C=C/CN(C)C)C4)CCO3)c3c(F)cccc3N(C)C2=O)n1` [Example 60, 2-(((S)-6-(((R)-4-(1-((E)-4-(Dimethylamino)but-2-enoyl)azetidin-3-yl)morpholin-2-yl)methyl)-7-fluoro-1-methyl-2-oxo-1,2,3,4,5,6-hexahydrobenzo[b][1,4]diazocin-3-yl)amino)-6-methyl-4-(trifluoromethyl)nicotinonitrile]: the kinact/KI came out at 240000 M⁻¹ s⁻¹.
Same read-out and setting: the result for `C=CC(=O)N1CC2(CN(CCN3CC[C@H](Nc4nc(C)cc(C(F)(F)F)c4C#N)C(=O)N(C)c4cccc(F)c43)C[C@@H]3COCCN32)C1` [Example 61, 2-(((S)-6-(2-((R)-1-A cryloyltetrahydro-1′H-spiro[azetidine-3,6′-pyrazino[2,1-c][1,4]oxazin]-8′(7′H)-yl)ethyl)-7-fluoro-1-methyl-2-oxo-1,2,3,4,5,6-hexahydrobenzo[b][1,4]diazocin-3-yl)amino)-6-methyl-4-(trifluoromethyl)nicotinonitrile] reads 500000 M⁻¹ s⁻¹.
As to `C=CC(=O)N1CC2(CN(CCN3CC[C@H](Nc4nc(C)cc(C(F)(F)F)c4C#N)C(=O)N(C)c4cccc(F)c43)C[C@H]3COCCN32)C1` [Example 62, 2-(((S)-6-(2-((S)-1-Acryloyltetrahydro-1′H-spiro[azetidine-3,6′-pyrazino[2,1-c][1,4]oxazin]-8′(7′H)-yl)ethyl)-7-fluoro-1-methyl-2-oxo-1,2,3,4,5,6-hexahydrobenzo[b][1,4]diazocin-3-yl)amino)-6-methyl-4-(trifluoromethyl)nicotinonitrile], the kinact/KI is 1.8e+06 M⁻¹ s⁻¹.
With `C=CC(=O)N1CC2(CN(CCN3CC[C@H](Nc4nc(C)cc(C(F)(F)F)c4C#N)C(=O)N(C)c4cccc(F)c43)C[C@@H](C)N2)C1` [Example 63, 2-(((S)-6-(2-((R)-2-Acryloyl-6-methyl-2,5,8-triazaspiro[3.5]nonan-8-yl)ethyl)-7-fluoro-1-methyl-2-oxo-1,2,3,4,5,6-hexahydrobenzo[b][1,4]diazocin-3-yl)amino)-6-methyl-4-(trifluoromethyl)nicotinonitrile], the kinact/KI came to 860000 M⁻¹ s⁻¹.
Still for that read-out and setting: the result for `C=CC(=O)N1CC2(CN(CCN3CC[C@H](Nc4nc(C)cc(C(F)(F)F)c4C#N)C(=O)N(C)c4cccc(Cl)c43)C[C@@H](C)N2)C1` [Example 64, 2-(((S)-6-(2-((R)-2-Acryloyl-6-methyl-2,5,8-triazaspiro[3.5]nonan-8-yl)ethyl)-7-chloro-1-methyl-2-oxo-1,2,3,4,5,6-hexahydrobenzo[b][1,4]diazocin-3-yl)amino)-6-methyl-4-(trifluoromethyl)nicotinonitrile] reads 1.8e+06 M⁻¹ s⁻¹.
The same measure, in the same setting: the result for `C=CC(=O)N1CC(n2cnc(CN3CC[C@H](Nc4nc(C)cc(C(F)(F)F)c4C#N)C(=O)N(C)c4cccc(F)c43)n2)C1` [Example 66, (S)-2-((6-((1-(1-Acryloylazetidin-3-yl)-1H-1,2,4-triazol-3-yl)methyl)-7-fluoro-1-methyl-2-oxo-1,2,3,4,5,6-hexahydrobenzo[b][1,4]diazocin-3-yl)amino)-6-methyl-4-(trifluoromethyl)nicotinonitrile] reads 2.4e+06 M⁻¹ s⁻¹.
Take `C=CC(=O)N1CC(c2noc(CN3CC[C@H](Nc4nc(C)cc(C(F)(F)F)c4C#N)C(=O)N(C)c4cccc(F)c43)n2)C1` [Example 67, (S)-2-((6-((3-(1-Acryloylazetidin-3-yl)-1,2,4-oxadiazol-5-yl)methyl)-7-fluoro-1-methyl-2-oxo-1,2,3,4,5,6-hexahydrobenzo[b][1,4]diazocin-3-yl)amino)-6-methyl-4-(trifluoromethyl)nicotinonitrile]: the kinact/KI is 1.3e+06 M⁻¹ s⁻¹.
With `C=CC(=O)N1CC(c2nnc(CN3CC[C@H](Nc4nc(C)cc(C(F)(F)F)c4C#N)C(=O)N(C)c4cccc(F)c43)[nH]2)C1` [Example 68, (S)-2-((6-((5-(1-Acryloylazetidin-3-yl)-4H-1,2,4-triazol-3-yl)methyl)-7-fluoro-1-methyl-2-oxo-1,2,3,4,5,6-hexahydrobenzo[b][1,4]diazocin-3-yl)amino)-6-methyl-4-(trifluoromethyl)nicotinonitrile], the kinact/KI worked out at 130000 M⁻¹ s⁻¹.
As for `C=CC(=O)N1CC2(CN(CCN3CC[C@H](Nc4nc(C)cc(C(F)(F)F)c4C#N)C(=O)N(C)c4cccc(C)c43)CCN2)C1` [Example 69, (S)-2-((6-(2-(2-Acryloyl-2,5,8-triazaspiro[3.5]nonan-8-yl)ethyl)-1,7-dimethyl-2-oxo-1,2,3,4,5,6-hexahydrobenzo[b][1,4]diazocin-3-yl)amino)-6-methyl-4-(trifluoromethyl)nicotinonitrile], the kinact/KI was 4.1e+06 M⁻¹ s⁻¹.
Consider `C=CC(=O)N1CC2(CN(CCN3CC[C@H](Nc4nc(C)cc(C(F)(F)F)c4C#N)C(=O)N(CC)c4cccc(F)c43)CCN2)C1` [Example 70, (S)-2-((6-(2-(2-Acryloyl-2,5,8-triazaspiro[3.5]nonan-8-yl)ethyl)-1-ethyl-7-fluoro-2-oxo-1,2,3,4,5,6-hexahydrobenzo[b][1,4]diazocin-3-yl)amino)-6-methyl-4-(trifluoromethyl)nicotinonitrile], for which the kinact/KI came to 1.3e+06 M⁻¹ s⁻¹.
Consider `C=CC(=O)N1CC2(CN(CCN3CC[C@H](Nc4nc(C)cc(C(F)(F)F)c4C#N)C(=O)N(C)c4cccc(F)c43)CCN2C(C)=O)C1` [Example 71, (S)-2-((6-(2-(5-Acetyl-2-acryloyl-2,5,8-triazaspiro[3.5]nonan-8-yl)ethyl)-7-fluoro-1-methyl-2-oxo-1,2,3,4,5,6-hexahydrobenzo[b][1,4]diazocin-3-yl)amino)-6-methyl-4-(trifluoromethyl)nicotinonitrile], for which the kinact/KI is 1.4e+06 M⁻¹ s⁻¹.
